# Measurements: patent publication US6919354B2, “1-aryl-or 1-alkylsulfonylbenzazole derivatives as 5-hydroxytryptamine-6 ligands” (Wyeth, priority 2001, dated 2005)
# Structures can show the parent of a compound that is named as a salt.
# Biological target: T1, human cloned 5-HT6 receptors (Homo sapiens, UniProt P50406)
# T1 construct: expressed in transfected cells; host or cells: HeLa cells
# Assay: 5-HT6 binding affinity, [3H]-LSD displacement from membranes of Hela cells expressing human cloned 5-HT6 receptors
# Conditions: 1 μM test compound; [3H]-LSD 3.0 nM
# Procedure: The affinity of test compounds for the serotonin 5-HT6 receptor is evaluated in the following manner. Cultured Hela cells expressing human cloned 5-HT6 receptors are harvested and centrifuged at low speed (1,000×g) for 10.0 min to remove the culture media. The harvested cells are suspended in half volume of fresh physiological phosphate buffered saline solution and recentrifuged at the same speed. This operation is repeated. The collected cells are then homogenized in ten volumes of 50 mM Tris.HCl (pH 7.4) and 0.5 mM EDTA. The homogenate is centrifuged at 40,000×g for 30.0 min and the precipitate is collected. The obtained pellet is resuspended in 10 volumes of Tris.HCl buffer and recentrifuged at the same speed. The final pellet is suspended in a small volume of Tris.HCl buffer and the tissue protein content is determined in aliquots of 10-25 μl volumes. Bovine Serum Albumin is used as the standard in the protein determination according to the method described in Lowry et al., J. Biol. Chem., 193:265 (1951). The volume of the suspended cell membranes is adjusted to give a tissue protein concentration of 1.0 mg/ml of suspension. The prepared membrane suspension (10 times concentrated) is aliquoted in 1.0 ml volumes and stored at −70° C. until used in subsequent binding experiments.
# Binding experiments are performed in a 96 well microtiter plate format, in a total volume of 200 μl. […] The test compounds are added in 20.0 μl volume.
# The reaction is allowed to proceed in the dark for 120 min at room temperature, at which time, the bound ligand-receptor complex is filtered off on a 96 well unifilter with a Packard Filtermate® 196 Harvester. The bound complex caught on the filter disk is allowed to air dry and the radioactivity is measured in a Packard TopCount® equipped with six photomultiplier detectors, after the addition of 40.0 μl Microscint®-20 scintillant to each shallow well. The unifilter plate is heat-sealed and counted in a PackardTopCount® with a tritium efficiency of 31.0%.
# Binding in the presence of varying concentrations of test compound is expressed as a percentage of specific binding in the absence of test compound. The results are plotted as log % bound versus log concentration of test compound. […] A linear regression line of data points is plotted, from which the IC50 value is determined and the Ki value is determined based upon the following equation: Ki=IC50/(1+L/KD) where L is the concentration of the radioactive ligand used and KD is the dissociation constant of the ligand for the receptor, both expressed in nM.
# T1 sequence (P50406 whole entry): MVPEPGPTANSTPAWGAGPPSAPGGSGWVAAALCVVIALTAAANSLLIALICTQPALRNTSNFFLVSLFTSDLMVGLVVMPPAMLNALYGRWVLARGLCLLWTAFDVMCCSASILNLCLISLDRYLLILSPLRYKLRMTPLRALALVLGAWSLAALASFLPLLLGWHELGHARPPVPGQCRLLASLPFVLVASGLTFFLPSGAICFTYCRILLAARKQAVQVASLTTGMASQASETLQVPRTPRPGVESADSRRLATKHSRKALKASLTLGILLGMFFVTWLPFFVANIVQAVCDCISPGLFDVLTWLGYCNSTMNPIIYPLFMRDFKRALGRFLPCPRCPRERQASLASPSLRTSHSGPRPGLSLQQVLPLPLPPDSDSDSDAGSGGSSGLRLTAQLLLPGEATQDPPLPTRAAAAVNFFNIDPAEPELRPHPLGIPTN
row,Compound,% inhibition at 1 μM concentration (5-HT6 binding)
1,"N,N-Bis(3-methoxybenzyl)-N-(2-{[1-(phenylsulfonyl)-1H-indol-4-yl]oxy}ethylamine [Example 7a]",94% @ 1 μM*
2,N-(3-methoxybenzyl)-N-(2-{[1-(phenylsulfonyl)-1H-indol-4-yl]oxy}ethylamineH hydrochloride [Example 7b],95% @ 1 μM*

# Same assay, conditions: 1 μM test compound; [3H]-LSD 3.0 nM; read-out: % inhibition at 1 μM concentration (5-HT6 binding)
row,Compound,inhibition at 1 µM
1,"O=S(=O)(c1ccccc1)n1ccc2c(OCCN3CCOCC3)cccc21 [Example 9, 4-(2-Morpholin-4-ylethoxy)-1-(phenylsulfonyl)-1H-indole Hydrochloride]",92%
2,"O=[N+]([O-])c1ccc(S(=O)(=O)n2ncc3c(OCCN4CCCCC4)cccc32)cc1 [Example 15, 1-[(4-nitrophenyl)sulfonyl]-4-[2-(1-piperidinyl)ethoxy]-1H-indazole]",76%

# Same assay, conditions: [3H]-LSD 3.0 nM, Hela cell membranes, 120 min at room temperature
row,Compound,Ki
1,"NCCOc1cccc2c1ccn2S(=O)(=O)c1ccccc1 [Example 5, 2-{[1-(Phenylsulfonyl)-1H-indole-4-yl]oxy}ethylamine Hydrochloride]",2 nM
2,"O=S(=O)(c1ccccc1)n1ccc2c(OCCNC3CCOCC3)cccc21 [Example 6, N-(2-{[1-(Phenylsulfonyl)-1H-indol-4-yl]oxy}ethyl)tetrahydro-2H-pyran-4-amine Hydrochloride]",6 nM
3,"CN(C)CCOc1cccc2c1ccn2S(=O)(=O)c1ccccc1 [Example 8, N,N-Dimethyl-N-(2-{[1-phenylsulfonyl)-1H-indol-4-yl]oxy}ethylamine Hydrochloride]",4 nM
4,"O=S(=O)(c1ccccc1)n1ccc2c(OCCN3CCCCC3)cccc21 [Example 10, 1-(Phenylsulfonyl)-4-(2-piperidin-1-ylethoxy)-1H-indole Hydrochloride]",7 nM
5,"O=S(=O)(c1ccccc1)n1ncc2c(OCCN3CCCCC3)cccc21 [Example 13, 1-Phenylsulfonyl)-4-[1-piperidinyl)ethoxy]-1H-indazole Hydrochloride]",2 nM
6,"NCCOc1cccc2c1cnn2S(=O)(=O)c1ccccc1 [Example 14, 2-{[1-Phenylsulfonyl)-1H-indazol-4-yl]oxy}ethylamine Hydrochloride]",1 nM
7,"O=S(=O)(c1ccc(F)cc1)n1ncc2c(OCCN3CCCCC3)cccc21 [Example 16, 1-[(4-fluorophenyl)sulfonyl]-4-[2-(1-piperidinyl)ethoxy]-1H-indazole]",19 nM
8,O=S(=O)(c1ccccc1)n1ncc2c(OCCNC3CCOCC3)cccc21 [Example 17],6 nM
9,"O=S(=O)(c1ccccc1)n1ncc2c(OCCNC3CCSCC3)cccc21 [Example 18, N-(2-{[1-Phenylsulfonyl)-1H-indazol-4-yl]oxy}ethyl)tetrahydro-2H-thiopyran-4-amine Hydrochloride]",11 nM
10,"Nc1ccc(S(=O)(=O)n2ncc3c(OCCN4CCCCC4)cccc32)cc1 [Example 19, 4-({4-[2-(1-Piperidinyl)ethoxy]-1H-indazol-1-yl}sulfonyl)aniline]",1 nM

# Tested on: not given
# Assay: not given
# Conditions: not given
row,Compound,melting point
1,"O=[N+]([O-])c1ccc(S(=O)(=O)n2ncc3c(OCCN4CCCCC4)cccc32)cc1 (as salt: hydrochloride) [Example 15, 1-[(4-nitrophenyl)sulfonyl]-4-[2-(1-piperidinyl)ethoxy]-1H-indazole]",117 to 119 °C
2,"O=S(=O)(c1ccc(F)cc1)n1ncc2c(OCCN3CCCCC3)cccc21 (as salt: hydrochloride) [Example 16, 1-[(4-fluorophenyl)sulfonyl]-4-[2-(1-piperidinyl)ethoxy]-1H-indazole]",122 °C (dec.)
